This data set has as its system human umbilical vein endothelial cells (HUVECs). The note with it: for number of tubes (capillary networking) versus control: 24 hours, HUVECs on growth factor-reduced Matrigel, 8 wells, five random fields per well. The method, then:
Various concentrations of compound A (0.1, 1, and 10 μM) are tested to assess the quality of effect of this compound on capillary networking (tube formation) in cultured human umbilical vein endothelial cells (HUVECs) seeded on growth factor-reduced Matrigel. The intensity of capillary networking is evaluated at 24 hours using a phase-contrast microscope. Images are captured and analySYS 3.2 software is used to count the number of tubes in five random fields of each well (8 wells altogether). The effect of the compound is compared to untreated cells grown in cell culture medium (control).

Read-outs that look alike come from different tables or passages of the source.

Data on 1 compound can be found in US20060258717A1, “ORGANIC COMPOUNDS” (priority 2004, published 2006).

As to `Cc1nccn1Cc1ccccn1` [Compound A, [2-(2-methylimidazol-1-yl)methyl]pyridine], the “number of tubes (capillary networking) versus control” value is reported as “significantly decreases the number of tubes” (1 μM compound) and “significantly decreases the number of tubes” (10 μM compound). For the same compound, the “cell toxicity (ToxiLight, ATP release from damaged cells)” value (additional study, concentrations not given) is recorded as “not related to cell toxicity”.
